In patent US9737511B2, “Method of treating or preventing pathologic effects of acute increases in hyperglycemia and/or acute increases of free fatty acid flux” (Albert Einstein College of Medicine, Inc., priority 2004, dated 2017):

Columns and labels:
[1] = test system: bovine aortic endothelial cells; experiment: DNA strand breakage, Comet assay; type: cell-based; settings: 30 mM glucose plus 100 μM compound, 7 days, FIG. 24
Experimental: Bovine aortic endothelial cells (“BAECs”, passage 4-10) were plated in 10 mm cell culture plates until confluent. Cells were incubated with either 5 mM glucose, 30 mM glucose, 30 mM glucose plus 100 μM deferoxamine (DFO), or 30 mM glucose plus 100 μM DMSO, a hydroxyl radical scavenger, for 7 days. Medium with reagents was changed daily. DNA strand breakage was detected using the Comet assay method.
DNA breakage detection was performed using the Comet Assay kit (Trevigen Gaitherburg Md.). Briefly, single cell electrophoresis was performed on the cometslide for 10 min at 1 volt/cm (measured from one electrode to another). After air-drying, the cometslide was stained with SYBR green. Fluorescence was detected using the Olympus IX70 fluorescent microscope and analysis of the fluorescent density of DNA breakage (length of tail) was performed using Image J software.

[2] = test system: poly (ADP-ribose)polymerase (PARP); experiment: PARP activity by 3H-NAD incorporation in aortic endothelial cells; type: cell-based, bovine; settings: 30 mM glucose plus 100 μM compound, 6 days, FIG. 25
Experimental: Bovine aortic endothelial cells (“BAECs”, passage 4-10) were plated in 10 mm cell culture plates until confluent. Cells were incubated with either 5 mM glucose, 30 mM glucose, 30 mM glucose plus 100 μM deferoxamine, or 30 mM glucose plus 100 μM DMSO for 6 days and medium changed daily.
The 3H-NAD incorporation method was used to assess PARP activity. BAECs were incubated with buffer which was composed of 56 mM Hepes (pH 7.5), 28 mM KCl, 28 mM NaCl, 2 mM MgCl2, 0.01% digitonin, 25 mM NAD^+, and 1 μCi/ml ^3HNAD^+ for 10 min at 37° C. TCA was added to precipitate ribosylated protein and cells were lysed in 2% NaOH. Detection of incorporated ^3H-NAD was performed using a scintillation counter, and PARP activity determined according to the number of ^3H-NAD dpm.

[3] = test system: bovine aortic endothelial cells; experiment: Hyperglycemia-induced intracellular reactive oxygen species production (CM-H2DCFDA probe); type: cell-based; settings: 30 mM glucose plus 250 μM deferoxamine, 72 hrs, FIG. 21 bar 4
Experimental: Cell culture conditions: For ROS measurement, bovine aortic endothelial cells (BAECs, passage 4-10) were plated in 96 well plates at 100,000 cells/well in Eagle's MEM containing 10% FBS, essential and nonessential amino acids, and antibiotics. Cells were incubated with either 5 mM glucose, 30 mM glucose, 30 mM glucose plus 100 micromolar deferoxamine, 30 mM glucose plus 250 micromolar deferoxamine. The deferoxamine was freshly prepared and added to the cells on three consecutive days. The ROS measurements were performed 72 hrs after the initial treatment.
Intracellular reactive oxygen species measurements: The intracellular formation of reactive oxygen species was detected using the fluorescent probe CMH2DCFDA (Molecular Probes). Cells (1×105 ml-1) were loaded with 10iM CM-H2DCFDDA, incubated for 45 min at 37° C., and analyzed in an HTS 7000 Bio Assay Fluorescent Plate Reader (Perkin Elmer) using the HTSoft program. ROS production was determined from an H202 standard curve (10-200 nmol ml-1).

prostacyclin synthase [4] = experiment: Prostacyclin synthase activity (6-keto-PGF1α immunoassay) in aortic endothelial cells; type: cell-based, bovine; settings: 30 mM glucose plus 100 μM deferoxamine, 24 hours, FIG. 26 bar 3
Experimental: Bovine aortic endothelial cells (“BAECs”, passage 4-10) were plated in a 24-well plate (50,000 cell/well). Cells were incubated with either 5 mM glucose, 30 mM glucose, or 30 mM glucose plus 100 μM deferoxamine. The prostacyclin synthase product, PGF-1α, was measured 24 hours later.
Prostacyclin synthase activity measured as the concentration of the stable product of prostacyclin synthase, PGF-1a. A competitive immunoassay method (Correlate-EIA) was used for the quantitative determination of 6-keto-PGF1α. Samples (100 μl) collected from BAECs culture medium were added to the assay plate, which was precoated with antibody (6-keto-PGF1α, EIA conjugate solution). PGF1α concentration was calculated according to a standard curve, and data analysis performed using AssayZap software.

[5] = test system: endothelial nitric oxide synthase (eNOS); experiment: eNOS activity (3H-citrulline) in aortic endothelial cells; type: cell-based, bovine; settings: 30 mM glucose plus 100 μM deferoxamine, 24 hour, FIG. 28 bar 3
Experimental: Bovine aortic endothelial cells (“BAECs”, passage 4-10) were plated in 24-well plate (50,000 cell/well). Cells were incubated with either 5 mM glucose, 30 mM glucose alone, or 30 mM glucose plus 100 μM deferoxamine, for 24 hour. Six hours before eNOS activity determination, media without arginine was added to the cells to deplete endogenous arginine.
Measurement of eNOS activity was accomplished as follows. BAECs were incubated with 400 μl of PBS-^3H-arginine (1.5 μci/ml) buffer for 30 min at 37° C. The reaction was stopped by adding IN TCA (500 μl/well, ice cold ), the cells were freeze fractured in liquid nitrogen for 2 min and thawed at 37° C. for 5 min to obtain the cell lysate. After extraction with ether, the cell lysate was adjusted to pH 5.5 using Hepes buffer containing 2 mM EDTA and 2 mM of EGTA, then loaded onto Trisformed DOWEX 50WX8 ion-exchange columns and ^3H-citrulline collected. Detection of ^3H-citrulline was performed using a liquid scintillation counter, and eNOS activity was calculated from the amount of ^3H-citrulline generated.

diabetic mice (db/db) = experiment: Diabetic wound healing (wound closure); type: in vivo, mouse; settings: deferoxamine-treated diabetic mice, FIGS. 33A-B
Text: The effect of reducing the wound healing in diabetic mice (db/db) by treating them with deferoxamine was also studied in the novel model of graded ischemia in the dorsal soft tissue of mice of Example 20. The animals were made diabetics as described in Example 21.

[6] = test system: streptozotocin-induced diabetic (STZ) and wild type C57 (WT) mice; experiment: Graded ischemia model in dorsal soft tissue (ischemic flap), angiogenic response to ischemia; type: in vivo, mouse; settings: for EPC mobilization: STZ mice vs untreated STZ mice, day 7 postischemic insult, FIG. 35
Text: Since the vascular anatomy of the mouse dorsum is precisely known, and the major axial vessels can be easily visualized, one can create a reliable zone of ischemia with a reproducible oxygen gradient in the tissue. This has been confirmed with direct tissue oxygen tension measurements utilizing five reference points (p1-p5) spaced 0.5 cm apart proceeding from the least to most ischemic regions. This also allows for the study of discrete microenvironments of ischemia (Areas A, B, C), with Area A being the least ischemic and Area C being the most ischemic portion of the soft tissue. The design of this model facilitates direct dynamic measurement of oxygen tension, quantitation of tissue survival, with a degree of reproducibility that allows correlation of specific oxygen tensions with changes in gene expression.
Researchers have created a novel model of graded ischemia in the dorsal soft tissue of mice. Since the vascular anatomy of the mouse dorsum is precisely known, and the major axial vessels can be easily visualized, this model creates a reliable zone of ischemia with a reproducible oxygen gradient in the tissue. This has been confirmed with direct tissue oxygen tension measurements utilizing four reference points (p1-p4) spaced 0.5 cm apart, proceeding from the least to most ischemic regions.
The effect of deferoxamine, an iron chelator, on ischemic neovascularization in streptozotocin-induced diabetic (STZ) and wild type C57 (WT) mice was examined. Male C57B16 mice (6-8 weeks old) were made diabetic by daily injections of 50 mg/kg streptozotocin in 0.05 M NaCitrate pH 4.5 after an eight hour fast, for five consecutive days. Two weeks after the initial injection the blood glucose was determined, the diabetic mice were randomized into two groups with equal mean blood glucose levels.
The treatment group was pretreated 7 days prior to having an ischemic flap created on their dorsum and throughout the experiment with daily injections of deferoxamine (10 mg/kg) subcutaneously once per day for 7 days in one group of diabetic animals. […]

[7] = Migration of diabetic bone marrow derived, lineage depleted cells toward SDF; type: cell-based, mouse; settings: cells from STZ mice treated with deferoxamine
[8] = test system: endothelial nitric oxide synthase (eNOS); experiment: eNOS activity in aortas of diabetic mice; type: in vivo, mouse; settings: STZ diabetic mice, 10 mg/kg subcutaneously once per day for 7 days, FIG. 29 bar 3
Experimental: (§1) Male C57B16 mice (6-8 weeks old) were made diabetic by daily injections of 50 mg/kg streptozotocin in 0.05 M NaCitrate pH 4.5 after an eight hour fast, for five consecutive days. Two weeks after the initial injection, the blood glucose was determined and the diabetic mice were randomized into two groups with equal mean blood glucose levels. Deferoxamine (10 mg/kg) was injected subcutaneously once per day for 7 days in one group of diabetic animals. The aortas were collected for endothelial nitric oxide synthase (eNOS) activity measurement.
Measurement eNOS activity was accomplished as follows. Aortas were collected in liquid-nitrogen and tissue proteins isolated. Immunoprecipitation methods were used to purify the eNOS from tissue lysates. The purified eNOS immuno-complex was incubated with 100 μl of reaction buffer (3 μM Tetrahydrobiopterin, ImM NAPDH, 2.5 mM CaCl2, 200 U Calmodulin, ^3H-L-arginine 0.2 μCi) for 45 min at 37° C. with rolling. After the incubation, samples were loaded onto Tris-formed DOWEX 50WX8 ion-exchange column and ^3H-citrulline was collected. ^3H-citrulline was quantitated using a liquid scintillation counter and eNOS activity was calculated from the amount of ^3H-citrulline generated.

[9] = test system: bovine aortic endothelial cells; experiment: Free intracellular iron measurement (fura-2 AM); type: cell-based; settings: 30 mM glucose plus 100 μM deferoxamine, 24 hours, FIG. 23C
Experimental: In order to detect intracellular free iron, cells were loaded with fura-2 AM in the dark at 37° C. for 15 min in 1 ml of TBSS containing 5 μM furs-2 AM. After loading, cells were incubated with TBSS with Iml of 20 μM EDTA for 5 min. (Kress et al., “The Relationship between Intracellular Free Iron and Cell Injury in Cultured Neurons, Astrocytes, and Oligodendrocytes”, J. Neuro., 22(14):5848-5855 (2002), which is hereby incorporated by reference in its entirety). Fluorescence was detected using an Olympus IX70 with 10 X planapo objectives, run by I.P. Lab Spectrum on a Power PC computer. Analysis was performed with I.P.Lab Spectrum.
Bovine aortic endothelial cells (“BAECs”, passage 4-10) were plated in 24 well plates at […] in Eagle's MEM containing 10% FBS, essential and nonessential amino acids, and antibiotics. Cells were incubated with either 5 mM glucose, 30 mM glucose, or 30 mM glucose plus 100 μM deferoxamine. Free intracellular iron measurement was performed 24 hours later. To detect intracellular free iron, cells were loaded with fura-2 AM as described above in Example 12.

prostacyclin synthase [10] = experiment: Prostacyclin synthase activity in aortas of diabetic mice; type: in vivo, mouse; settings: STZ diabetic mice, 10 mg/kg subcutaneously once per day for 7 days, FIG. 27 bar 3
Experimental: as §1, with “injection” for “injection,”, “collected.” for “collected”, “prostacyclin” for “endothelial nitric oxide”, “synthase” for “synthase (eNOS)”
Prostacyclin synthase activity measurement A competitive immunoassay method (Correlate-EIA) was used for the quantitative determination of 6-keto-PGF1α. Mouse aortas were washed with PBS and incubated at 37° C. for 3 hours in 400 μl incubation buffer containing 20 mM TRIS buffer (pH 7.5), and 15 μM arachidonic acid. 100 μl of sample was used to measure the PGF 1α.

Row | SMILES | hyperglycemia-induced DNA strand breakage [1] | hyperglycemia-induced PARP activation [2] | hyperglycemia-induced increased ROS (superoxide) production [3] | hyperglycemia-induced inhibition of prostacyclin synthase activity (PGF-1α) (prostacyclin synthase [4]) | hyperglycemia-induced inhibition of eNOS activity [5] | complete wound closure (diabetic mice (db/db)) [days] | EPC mobilization [6] | EPC mobilization ([6]; listed as Deferoxamine) | tissue survival ([6]; STZ mice, 10 mg/kg s.c. daily, FIG. 31B) | blood flow assessed by Doppler ([6]; STZ mice, 10 mg/kg s.c. daily, day 7, FIG. 31A) | post-ischemic neovascularization (CD31 positive blood vessel counts) ([6]; STZ mice, FIG. 32) | bone marrow-derived endothelial precursor cells mobilized in response to ischemia ([6]; deferoxamine-treated diabetic animals, FIGS. 34C-D) [%] | capillary formation in ischemic tissue ([6]; deferoxamine-treated diabetic mice vs untreated, FIG. 34E-F) | oxygenation of ischemic flap by forming new vessels ([6]; deferoxamine-treated diabetic mice, FIGS. 34A-B) | diabetes-induced defect in the normal angiogenic response to ischemia ([6]; diabetic animals treated with deferoxamine) | neovascularization (CD31 positive blood vessel counts) ([6]; wild type mice, FIG. 32) | migration toward SDF [7] | diabetes-induced inhibition of eNOS activity in aortas [8] | hyperglycemia-induced increase in intracellular free iron [9] | diabetes-induced inhibition of prostacyclin synthase activity in aortas (prostacyclin synthase [10])
1 | C[S+](C)[O-] [DMSO] | Inhibit | Inhibit |  |  |  |  |  |  |  |  |  |  |  |  |  |  |  |  |  | 
2 | CC(=O)N(O)CCCCCNC(=O)CCC(=O)N(O)CCCCCNC(=O)CCC(=O)N(O)CCCCCN [deferoxamine] | prevents | prevents | completely prevents | does not inhibit the activity of this important antiatherogenic enzyme at all | does not inhibit the activity of this important antiatherogenic enzyme at all | 16 | improved | restores | restored to normal | restored to normal | restored | 1.12 | substantially increase | increase oxygenation | completely prevents | improved neovascularization | restored to normal | does not inhibit the activity of this important antiatherogenic enzyme at all | completely prevents | does not inhibit the activity of this important antiatherogenic enzyme at all
